Target: T1, INSR (Homo sapiens, UniProt P06213)
T1 construct: purchased Thermo Fisher Scientific (Life Technologies) SelectScreen
Test: SelectScreen Z'LYTE
Assay type: biochemical
Summary of the method: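 Percent values come from Thermo SelectScreen profiling of NU5455, combining activity and binding assays. CSF1R was run in Z'LYTE format at Km app ATP, and CAMK1 in Adapta format with ATP listed at 10.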

T1 sequence (P06213 28-1382): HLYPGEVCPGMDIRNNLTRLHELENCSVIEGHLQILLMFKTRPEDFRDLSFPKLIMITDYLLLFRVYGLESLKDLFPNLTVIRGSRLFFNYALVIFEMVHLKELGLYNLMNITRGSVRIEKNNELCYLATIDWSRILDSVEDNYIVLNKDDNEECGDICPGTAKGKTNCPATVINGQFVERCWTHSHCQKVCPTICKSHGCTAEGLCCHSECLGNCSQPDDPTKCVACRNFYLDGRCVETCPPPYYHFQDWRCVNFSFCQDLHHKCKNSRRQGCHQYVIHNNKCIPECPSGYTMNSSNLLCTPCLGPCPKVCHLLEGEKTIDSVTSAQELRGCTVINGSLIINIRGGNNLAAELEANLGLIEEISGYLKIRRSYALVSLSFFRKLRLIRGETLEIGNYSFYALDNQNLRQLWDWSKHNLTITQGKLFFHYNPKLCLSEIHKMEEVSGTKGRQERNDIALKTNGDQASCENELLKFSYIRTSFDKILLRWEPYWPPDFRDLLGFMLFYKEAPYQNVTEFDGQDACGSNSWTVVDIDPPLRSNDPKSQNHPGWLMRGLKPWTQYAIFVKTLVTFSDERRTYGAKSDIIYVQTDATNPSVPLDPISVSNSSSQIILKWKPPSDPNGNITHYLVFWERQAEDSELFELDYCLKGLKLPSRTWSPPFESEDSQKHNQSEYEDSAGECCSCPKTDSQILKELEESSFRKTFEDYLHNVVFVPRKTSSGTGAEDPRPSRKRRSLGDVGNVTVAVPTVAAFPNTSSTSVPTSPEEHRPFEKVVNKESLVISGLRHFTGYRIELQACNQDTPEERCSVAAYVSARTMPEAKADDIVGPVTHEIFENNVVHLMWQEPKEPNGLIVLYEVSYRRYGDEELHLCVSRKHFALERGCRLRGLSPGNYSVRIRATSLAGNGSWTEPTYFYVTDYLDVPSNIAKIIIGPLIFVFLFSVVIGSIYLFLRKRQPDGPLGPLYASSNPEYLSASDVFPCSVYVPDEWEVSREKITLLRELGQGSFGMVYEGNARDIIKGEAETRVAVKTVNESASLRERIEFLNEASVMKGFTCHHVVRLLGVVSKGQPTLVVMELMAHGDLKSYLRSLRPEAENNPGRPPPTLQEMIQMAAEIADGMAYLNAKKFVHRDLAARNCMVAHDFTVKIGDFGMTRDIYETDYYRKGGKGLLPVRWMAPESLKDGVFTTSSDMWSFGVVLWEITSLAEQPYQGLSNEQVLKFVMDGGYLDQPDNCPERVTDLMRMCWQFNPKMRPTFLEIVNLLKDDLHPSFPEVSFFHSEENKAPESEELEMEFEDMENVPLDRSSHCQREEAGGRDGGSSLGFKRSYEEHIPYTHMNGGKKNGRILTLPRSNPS

CN(C(=O)CN1CCOCC1)c1ccc2sc3c(-c4cccc5c(=O)cc(N6CC7CCC(C6)O7)oc45)cccc3c2c1 [NU5455] was tested. Which inhibition at 1 µM did it give?
The inhibition at 1 µM was 4.1%.
